Measured values taken from patent US10640499B2 (Gilead Sciences, Inc., priority 2016, dated 2020).

Experiments:
Format in all cases: cell-based
[1] = tested on: TNFα; assay: Cytokine profiling assay in human PBMCs, TNFα detection (MSD); settings: PBMC; cryopreserved human PBMCs, 24 hours at 37° C.; concentration at half-maximal effect, normalized percent activation; read-out: TNFa AC50
Description: (§1) Cryopreserved human PBMCs isolated from healthy donors were purchased from StemCell Technologies (Vancouver, Canada). Cell culture medium used was RPMI with L-Glutamine (Mediatech, Manassas, Va.) supplemented with 10% fetal bovine serum (Hyclone, GE Healthcare, Logan, Utah) and Penicillin-Streptomycin (Mediatech). Human TNFα, IL12p40, and IFNα2a 384-well Assay capture plates, standards, buffers and processing reagents were obtained from MesoScale Discovery Technologies (MSD; Rockville, Md.).
(§2) Cryopreserved human PBMCs (1×10e8 cells/ml) were thawed at 37° C. and resuspended in 25 mL warm cell culture medium. The cells were pelleted at 200×g (Beckman Avanti J-E) for 5 min and resuspended in 20 mL of fresh culture media. Cells were counted using a Cellometer (Nexcelcom Bioscience), adjusted to 2×10e6 cells, and incubated for 2 hours in an incubator set at 37° C., 5% CO2 to recover from cryopreservation. Compounds were serially diluted in DMSO at half-log steps to generate a 10-point dose range. Using a Bravo pipette equipped with a 384 well head (Agilent), 0.4 μL of compound was transferred to each well of a 384 well black, clear bottom plate (Greiner Bio-One, Germany) containing 30 μL of cell culture medium. Recovered PBMCs were then dispensed into the assay plate at 50 μL per well (100 k cells/well) using the MicroFlow multichannel dispenser (Biotek). Final DMSO concentration was 0.5%. DMSO was used as the negative control. The plates were incubated for 24 hours at 37° C. PBMCs in the assay plate were pelleted by centrifugation (Beckman Avanti J-E) at 200×g for 5 min.
(§3) Using a Biomek FX 384 well pipetting station (Beckman), conditioned culture medium (CCM) from the assay plate was transferred to MSD capture plates customized for each cytokine. For IFNα and IL12-p40 detection, 25 μL and 20 μL of CCM were added directly to each capture plate, respectively. For TNFα detection, CCM was diluted 1:9 in fresh culture medium, and 20 μL of diluted CCM was used. Serially diluted calibration standards for each cytokine were used to generate standard curves and establish assay linearity. The plates were sealed and incubated overnight at 4° C. in a plate shaker (Titer Plate) set at 200 rpm. On the following day, antibodies specific for each cytokine were diluted 1:50 in MSD Diluent 100 antibody dilution buffer. Diluted antibodies were added to corresponding capture plates at 10 μL/well, and incubated at RT for 1-2 hrs in the shaker. The plates were washed with PBST buffer (3×, 60 μl/well) using a Biotek Multiflow plate washer. MSD Read Buffer diluted to 2× in deionized water and 35 μL/well was added via Biomek FX instrument. The plates were read immediately in a MSD6000 reader. Data were normalized to positive and negative controls in each assay plate. AC50 values represent compound concentrations at half-maximal effect based on normalized percent activation and calculated by non-linear regression using Pipeline Pilot software (Accelrys, San Diego, Calif.).

[2] = tested on: IFNα; assay: Cytokine profiling assay in human PBMCs, IFNα detection (MSD); settings: PBMC; cryopreserved human PBMCs, 24 hours at 37° C.; concentration at half-maximal effect, normalized percent activation; read-out: IFNa AC50
Description: as §1, §2, §3

[3] = tested on: IL12p40; assay: Cytokine profiling assay in human PBMCs, IL12-p40 detection (MSD); settings: PBMC; cryopreserved human PBMCs, 24 hours at 37° C.; concentration at half-maximal effect, normalized percent activation
Description: as §1, §2, §3

Row | SMILES | AC50 [1] | AC50 [2] | AC50 [3]
1 | CCC[C@](C)(CNC(C)=O)Nc1nc(N)nc2cccnc12 [Compound 6, (R)—N-(2-((2-aminopyrido[3,2-d]pyrimidin-4-yl)amino)-2-methylpentyl)acetamide] | 1460 nM | > 50000 nM | 1240 nM
2 | CCCC[C@H](CNC(C)=O)Nc1nc(N)nc2cc(F)cnc12 [Compound 8, (R)—N-(2-((2-amino-7-fluoropyrido[3,2-d]pyrimidin-4-yl)amino)hexyl)acetamide] | 1880 nM | > 50000 nM | 1480 nM
3 | CCCC[C@](C)(CNC(C)=O)Nc1nc(N)nc2cc(OC)cnc12 [Compound 4, (R)—N-(2-((2-amino-7-methoxypyrido[3,2-d]pyrimidin-4-yl)amino)-2-methylhexyl)acetamide] | 122 nM | > 50000 nM | 120 nM
4 | CCCC[C@](C)(CNC(C)=O)Nc1nc(N)nc2cc(CC)cnc12 [Compound 1, (R)—N-(2-((2-amino-7-ethylpyrido[3,2-d]pyrimidin-4-yl)amino)-2-methylhexyl)acetamide] | 85.3 nM | 44600 nM | 60.4 nM
5 | CCCC[C@](C)(CNC(C)=O)Nc1nc(N)nc2cc(OCC)cnc12 [Compound 5, (R)—N-(2-((2-amino-7-ethoxypyrido[3,2-d]pyrimidin-4-yl)amino)-2-methylhexyl)acetamide] | 81.2 nM | > 50000 nM | 48.4 nM
6 | CCCC[C@](C)(CNC(C)=O)Nc1nc(N)nc2cc(C(C)C)cnc12 [Compound 2, (R)—N-(2-((2-amino-7-isopropylpyrido[3,2-d]pyrimidin-4-yl)amino)-2-methylhexyl)acetamide] | 262 nM | 35000 nM | 209 nM
7 | CCCCCC[C@](C)(CNC(C)=O)Nc1nc(N)nc2cccnc12 [Compound 7] | 4190 nM | > 50000 nM | 2670 nM
